Results as given in patent US20240399142A1, “Methods Of Using Alternating Electric Fields And Checkpoint Inhibitors” (NOVOCURE GMBH, priority 2023, published 2024).

Test: LUNAR study safety: adverse events per CTCAE version 4.03, safety population
Format: in vivo, human
[1] = Grade 3, nervous system disorders
[2] = Grade 3, renal and urinary disorders
[3] = Grade 3, respiratory, thoracic, and mediastinal disorders
[4] = Grade 3, skin and subcutaneous tissue disorders

Experimental: Safety and treatment data were compiled from all patients who received any study therapy and were analyzed according to the actual treatment received. Analyses were performed using SAS software, version 9.4 (SAS Institute).

CC(=O)O[C@@]12CO[C@@H]1C[C@H](O)[C@@]1(C)C(=O)[C@H](O)C3=C(C)[C@@H](OC(=O)[C@H](O)[C@@H](NC(=O)OC(C)(C)C)c4ccccc4)C[C@@](O)([C@@H](OC(=O)c4ccccc4)[C@H]21)C3(C)C [Docetaxel, docetaxel]
18 (26.5) no. (%): Fatigue (All grades)
3 (4.4) no. (%): Rash maculopapular (All grades) | Febrile neutropenia (Grade 3) | Leukopenia (Grade 3)
8 (11.8) no. (%): Hypoalbuminemia (All grades) | Hypokalemia (All grades) | Pleural effusion (All grades) | Anemia (Grade 3)
5 (7.4) no. (%): White blood cell count decreased (Grade 3)
7 (10.3) no. (%): Arthralgia (All grades) | Vomiting (All grades) | White blood cell count decreased (All grades) | Pneumonia (Grade 3)
23 (33.8) no. (%): Any adverse event (Grade 3)
10 (14.7) no. (%): Asthenia (All grades) | Constipation (All grades) | Nausea (All grades)
15 (22.1) no. (%): Neutropenia (All grades)
19 (27.9) no. (%): Anemia (All grades) | Dyspnea (All grades)
12 (17.6) no. (%): Diarrhea (All grades)
11 (16.2) no. (%): Cough (All grades) | Decreased appetite (All grades) | Pneumonia (All grades)
1 (1.5) no. (%): Dysphagia (All grades) | Upper respiratory tract infection (All grades) | Alanine aminotransferase increased (Grade 3) | Anemia macrocytic (Grade 3) | Atrial tachycardia (Grade 3) | Bone pain (Grade 3) | Cancer pain (Grade 3) | Cholangitis (Grade 3) | Dehydration (Grade 3) | Drug hypersensitivity (Grade 3) | Forced expiratory volume decreased (Grade 3) | Gastroenteritis norovirus (Grade 3) | Hyperglycemia (Grade 3) | Hypoalbuminemia (Grade 3) | Ileus (Grade 3) | Intestinal dilatation (Grade 3) | Intestinal hemorrhage (Grade 3) | Liver disorder (Grade 3) | Malignant ascites (Grade 3) | Malignant pleural effusion (Grade 3) | Mucosal inflammation (Grade 3) | Muscular weakness (Grade 3) | Myocardial infarction (Grade 3) | Neck pain (Grade 3) | Neutropenia (Grade 3) | Non-cardiac chest pain (Grade 3) | Pancreatic failure (Grade 3) | Peripheral sensory (Grade 3) | Pyopneumothorax (Grade 3) | Refeeding syndrome (Grade 3) | Right ventricular failure (Grade 3) | Sepsis (Grade 3) | Hemiparesis [1] | Neurologic neglect syndrome [1] | Chronic obstructive pulmonary disease [3] | Hemoptysis [3] | Pneumonitis [3] | Pulmonary embolism [3] | Alopecia [4]
16 (23.5) no. (%): Any adverse event (Grade 4)
2 (2.9) no. (%): Rash (All grades) | Hyponatremia (Grade 3) | Metastases to central nervous system (Grade 3) | Neutrophil count decreased (Grade 3) | Oedema peripheral (Grade 3) | Peripheral sensorimotor neuropathy [1] | Syncope [1] | Atelectasis [3] | Dyspnoea [3] | Hypoxia [3]
4 (5.9) no. (%): Back pain (All grades) | Hyponatremia (All grades) | Asthenia (Grade 3) | Fatigue (Grade 3) | Pleural effusion [3]
61 (89.7) no. (%): Any adverse event (All grades)
9 (13.2) no. (%): Oedema peripheral (All grades) | Pyrexia (All grades)
22 (32.4) no. (%): Alopecia (All grades)
6 (8.8) no. (%): Headache (All grades) | Neutrophil count decreased (All grades)
0 no. (%): Dermatitis (All grades) | Pruritus (All grades) | Skin irritation (All grades) | Acute myocardial infarction (Grade 3) | Adenocarcinoma of colon (Grade 3) | Arthralgia (Grade 3) | Ascites (Grade 3) | Aspergillus infection (Grade 3) | Autoimmune colitis (Grade 3) | Back pain (Grade 3) | Blood bilirubin increased (Grade 3) | Bronchiolitis (Grade 3) | Bronchitis (Grade 3) | C-reactive protein increased (Grade 3) | Cardiac failure congestive (Grade 3) | Cardiac tamponade (Grade 3) | Cardiac ventricular thrombosis (Grade 3) | Cataract (Grade 3) | Chest pain (Grade 3) | Cholecystitis (Grade 3) | Cholelithiasis (Grade 3) | Clostridium bacteremia (Grade 3) | Coronary artery disease (Grade 3) | Decreased appetite (Grade 3) | Diarrhea (Grade 3) | Diverticulitis (Grade 3) | Encephalitis (Grade 3) | Esophagitis (Grade 3) | Euthanasia (Grade 3) | Femoral neck fracture (Grade 3) | Gastroenteritis salmonella (Grade 3) | General physical health deterioration (Grade 3) | Hematochezia (Grade 3) | Hepatic enzyme increased (Grade 3) | Hip fracture (Grade 3) | Hypercalcemia (Grade 3) | Hyperkalaemia (Grade 3) | Hypertriglyceridaemia (Grade 3) | Hypocalcaemia (Grade 3) | Hypokalemia (Grade 3) | Infection (Grade 3) | Intestinal perforation (Grade 3) | Large intestine perforation (Grade 3) | Localized oedema (Grade 3) | Lung abscess (Grade 3) | Lymphocyte count decreased (Grade 3) | Lymphopenia (Grade 3) | Malnutrition (Grade 3) | Metastases to bone (Grade 3) | Metastases to meninges (Grade 3) | Metastases to skin (Grade 3) | Mouth ulceration (Grade 3) | Multiple organ dysfunction syndrome (Grade 3) | Myalgia (Grade 3) | Nausea (Grade 3) | Neuropathy peripheral (Grade 3) | Oral candidiasis (Grade 3) | Pancreatitis (Grade 3) | Pericardial effusion (Grade 3) | Platelet count decreased (Grade 3) | Pneumonia pseudomonal (Grade 3) | Pneumonia staphylococcal (Grade 3) | Pyelonephritis (Grade 3) | Pyrexia (Grade 3) | Respiratory tract infection (Grade 3) | Septic shock (Grade 3) | Skin infection (Grade 3) | Stomatitis (Grade 3) | Subileus (Grade 3) | Thrombocytopenia (Grade 3) | Thyroiditis subacute (Grade 3) | Tumor pain (Grade 3) | Upper respiratory tract infection (Grade 3) | Urinary tract infection (Grade 3) | Urosepsis (Grade 3) | Vomiting (Grade 3) | Weight decreased (Grade 3) | Brain oedema [1] | Cauda equina syndrome [1] | Dysarthria [1] | Embolic stroke [1] | Motor dysfunction [1] | Nervous system disorder [1] | Neurotoxicity [1] | Quadriparesis [1] | Seizure [1] | Vocal cord paralysis [1] | Anxiety (Grade 3, psychiatric disorders) | Confusional state (Grade 3, psychiatric disorders) | Mental status changes (Grade 3, psychiatric disorders) | Acute kidney injury [2] | Urinary retention [2] | Acute respiratory failure [3] | Bronchial obstruction [3] | Bronchopleural fistula [3] | Cough [3] | Esophago-bronchial fistula [3] | Interstitial lung disease [3] | Pneumonia aspiration [3] | Pulmonary hemorrhage [3] | Respiratory failure [3] | Dermatitis exfoliative [4] | Pruritus [4] | Rash [4] | Rash erythematous [4] | Rash maculopapular [4] | Skin erosion [4] | Skin reaction [4] | Skin toxicity [4] | Deep vein thrombosis (Grade 3, vascular disorders) | Embolism (Grade 3, vascular disorders) | Hypertension (Grade 3, vascular disorders) | Jugular vein thrombosis (Grade 3, vascular disorders) | Peripheral arterial occlusive disease (Grade 3, vascular disorders) | Vena cava embolism (Grade 3, vascular disorders) | Acute myocardial infarction (Grade 4) | Adenocarcinoma of colon (Grade 4) | Alanine aminotransferase increased (Grade 4) | Anemia (Grade 4) | Anemia macrocytic (Grade 4) | Arthralgia (Grade 4) | Ascites (Grade 4) | Aspergillus infection (Grade 4) | Asthenia (Grade 4) | Atrial tachycardia (Grade 4) | Autoimmune colitis (Grade 4) | Back pain (Grade 4) | Blood bilirubin increased (Grade 4) | Bone pain (Grade 4) | Bronchiolitis (Grade 4) | Bronchitis (Grade 4) | C-reactive protein increased (Grade 4) | Cancer pain (Grade 4) | Cardiac failure congestive (Grade 4) | Cardiac tamponade (Grade 4) | Cardiac ventricular thrombosis (Grade 4) | Cataract (Grade 4) | Chest pain (Grade 4) | Cholangitis (Grade 4) | Cholecystitis (Grade 4) | Cholelithiasis (Grade 4) | Clostridium bacteremia (Grade 4) | Coronary artery disease (Grade 4) | Decreased appetite (Grade 4) | Dehydration (Grade 4) | Diarrhea (Grade 4) | Diverticulitis (Grade 4) | Drug hypersensitivity (Grade 4) | Encephalitis (Grade 4) | Esophagitis (Grade 4) | Euthanasia (Grade 4) | Fatigue (Grade 4) | Febrile neutropenia (Grade 4) | Femoral neck fracture (Grade 4) | Forced expiratory volume decreased (Grade 4) | Gastroenteritis norovirus (Grade 4) | Gastroenteritis salmonella (Grade 4) | General physical health deterioration (Grade 4) | Hematochezia (Grade 4) | Hepatic enzyme increased (Grade 4) | Hip fracture (Grade 4) | Hypercalcemia (Grade 4) | Hyperglycemia (Grade 4) | Hyperkalaemia (Grade 4) | Hypertriglyceridaemia (Grade 4) | Hypoalbuminemia (Grade 4) | Hypocalcaemia (Grade 4) | Hypokalemia (Grade 4) | Hyponatremia (Grade 4) | Ileus (Grade 4) | Infection (Grade 4) | Intestinal dilatation (Grade 4) | Intestinal hemorrhage (Grade 4) | Intestinal perforation (Grade 4) | Large intestine perforation (Grade 4) | Leukopenia (Grade 4) | Liver disorder (Grade 4) | Localized oedema (Grade 4) | Lung abscess (Grade 4) | Lymphocyte count decreased (Grade 4) | Lymphopenia (Grade 4) | Malignant ascites (Grade 4) | Malignant pleural effusion (Grade 4) | Malnutrition (Grade 4)
